Earlier results, collected in patent US20210308436A1, “COMPLETE UPPER RESPIRATORY TRACT CLEANSING SYSTEM AND ITS USE” (priority 2013, published 2021).
Structures can show the parent of a compound that is named as a salt.

Test system: perennial allergic rhinitis
Conditions: 1% solution in normal saline, once every 48 hours for 4 weeks, vs placebo wash (normal saline only)

What does the source list for `CN[C@@H](C)[C@H](O)c1ccccc1` [ephedrine hydrochloride]?
peak nasal inspiratory flow rates: significant improvement; symptom scores: significant improvement
